{"source": "paper PMC7509217", "about": "(Cellular and Molecular Gastroenterology and Hepatology, 2020)", "biological_target": "rat ACC2 (acetyl-CoA carboxylase 2) (Rattus norvegicus, UniProt O70151)", "sequence (O70151 1-2456)": "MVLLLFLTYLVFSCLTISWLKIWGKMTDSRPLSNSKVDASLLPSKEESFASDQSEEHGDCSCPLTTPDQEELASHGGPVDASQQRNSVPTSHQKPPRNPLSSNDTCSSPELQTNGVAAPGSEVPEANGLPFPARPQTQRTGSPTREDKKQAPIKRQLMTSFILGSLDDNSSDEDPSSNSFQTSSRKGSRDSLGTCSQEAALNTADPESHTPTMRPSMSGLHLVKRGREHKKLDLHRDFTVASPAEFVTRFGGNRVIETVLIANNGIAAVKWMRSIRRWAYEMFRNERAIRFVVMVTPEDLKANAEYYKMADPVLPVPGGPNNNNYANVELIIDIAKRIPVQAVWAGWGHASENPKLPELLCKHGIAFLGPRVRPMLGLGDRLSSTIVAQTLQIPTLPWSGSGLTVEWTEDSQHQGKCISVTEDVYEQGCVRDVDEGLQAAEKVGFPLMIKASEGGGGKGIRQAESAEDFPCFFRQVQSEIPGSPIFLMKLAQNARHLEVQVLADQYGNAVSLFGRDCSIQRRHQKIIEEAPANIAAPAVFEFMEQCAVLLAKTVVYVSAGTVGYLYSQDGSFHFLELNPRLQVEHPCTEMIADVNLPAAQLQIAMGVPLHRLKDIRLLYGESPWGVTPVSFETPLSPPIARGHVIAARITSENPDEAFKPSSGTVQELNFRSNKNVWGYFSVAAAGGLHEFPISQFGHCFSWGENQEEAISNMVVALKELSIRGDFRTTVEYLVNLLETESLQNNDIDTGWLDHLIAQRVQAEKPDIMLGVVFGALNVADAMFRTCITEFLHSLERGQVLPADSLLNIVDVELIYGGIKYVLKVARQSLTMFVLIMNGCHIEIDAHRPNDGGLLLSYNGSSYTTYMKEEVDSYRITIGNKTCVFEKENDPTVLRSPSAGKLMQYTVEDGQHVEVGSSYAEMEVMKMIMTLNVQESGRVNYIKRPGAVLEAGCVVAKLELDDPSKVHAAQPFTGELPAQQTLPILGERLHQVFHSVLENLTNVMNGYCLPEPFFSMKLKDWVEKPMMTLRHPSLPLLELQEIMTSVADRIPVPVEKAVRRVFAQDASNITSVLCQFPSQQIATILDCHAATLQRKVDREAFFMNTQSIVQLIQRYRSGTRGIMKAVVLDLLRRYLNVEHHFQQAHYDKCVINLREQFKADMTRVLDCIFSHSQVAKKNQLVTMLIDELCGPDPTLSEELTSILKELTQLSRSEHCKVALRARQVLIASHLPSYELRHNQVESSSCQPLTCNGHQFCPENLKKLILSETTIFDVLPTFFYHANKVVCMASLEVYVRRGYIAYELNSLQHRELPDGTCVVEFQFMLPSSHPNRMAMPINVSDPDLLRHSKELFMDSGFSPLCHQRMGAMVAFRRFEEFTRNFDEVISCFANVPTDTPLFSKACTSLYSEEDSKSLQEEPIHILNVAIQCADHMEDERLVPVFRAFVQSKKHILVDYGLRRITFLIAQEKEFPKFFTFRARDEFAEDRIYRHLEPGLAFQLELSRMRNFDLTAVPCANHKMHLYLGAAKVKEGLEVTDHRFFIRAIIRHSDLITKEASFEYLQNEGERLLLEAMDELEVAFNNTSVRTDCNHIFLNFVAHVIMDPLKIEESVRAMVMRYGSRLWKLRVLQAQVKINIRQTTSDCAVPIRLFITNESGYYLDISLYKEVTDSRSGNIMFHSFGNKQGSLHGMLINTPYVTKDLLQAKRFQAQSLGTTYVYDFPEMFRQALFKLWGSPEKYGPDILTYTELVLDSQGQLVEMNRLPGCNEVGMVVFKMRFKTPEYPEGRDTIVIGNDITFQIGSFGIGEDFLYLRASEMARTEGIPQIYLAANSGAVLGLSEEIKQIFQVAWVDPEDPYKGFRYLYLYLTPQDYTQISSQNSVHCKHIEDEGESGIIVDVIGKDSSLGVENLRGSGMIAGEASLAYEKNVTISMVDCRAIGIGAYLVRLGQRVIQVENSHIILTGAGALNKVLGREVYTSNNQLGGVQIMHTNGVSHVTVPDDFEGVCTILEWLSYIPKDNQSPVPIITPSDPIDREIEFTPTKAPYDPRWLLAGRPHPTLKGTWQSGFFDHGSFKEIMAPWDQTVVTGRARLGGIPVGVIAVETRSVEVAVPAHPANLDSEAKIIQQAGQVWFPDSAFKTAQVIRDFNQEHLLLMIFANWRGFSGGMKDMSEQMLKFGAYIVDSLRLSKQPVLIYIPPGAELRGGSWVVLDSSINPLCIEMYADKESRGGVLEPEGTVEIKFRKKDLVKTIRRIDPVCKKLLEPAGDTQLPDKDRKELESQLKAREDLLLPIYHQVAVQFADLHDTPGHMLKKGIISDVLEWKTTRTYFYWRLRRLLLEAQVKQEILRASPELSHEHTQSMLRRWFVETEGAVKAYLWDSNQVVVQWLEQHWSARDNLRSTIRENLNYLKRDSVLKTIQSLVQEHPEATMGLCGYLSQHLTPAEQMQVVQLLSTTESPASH", "test": "citrate-activated ACC enzyme, […]bicarbonate incorporation into malonyl-CoA", "assay_type": "biochemical", "data": [{"smiles": "COc1cc(C(=O)N2CCC3(CC2)CC(=O)c2c(cnn2C(C)C)C3)cc(-c2ccc(C(=O)O)cc2)n1", "note": "[PF-05221304]", "values": [{"measurement": "IC50", "value": "8.2 ± 4.1", "unit": "nM"}]}]}
